# Source: BindingDB's records for doi:10.7270/Q2PR7TCX (The Scripps Research Institute Molecular Screening Center, 2007)
# pIC50: −log10 of the molar value. Where a name gives a salt, the structure may show the parent alone.
# Target: Steroidogenic factor 1 (Homo sapiens, UniProt Q13285)
# Assay: inhibition of SF-1 LBD-driven luciferase – cell-based, CHO-K1, Gal4-SF-1 LBD, luciferase luminescence, counter-screen for RORA inhibitor project, dose response (AID 611)
# Conditions: not given
# Chain of Steroidogenic factor 1 (Q13285 whole entry, the tested form may be a part): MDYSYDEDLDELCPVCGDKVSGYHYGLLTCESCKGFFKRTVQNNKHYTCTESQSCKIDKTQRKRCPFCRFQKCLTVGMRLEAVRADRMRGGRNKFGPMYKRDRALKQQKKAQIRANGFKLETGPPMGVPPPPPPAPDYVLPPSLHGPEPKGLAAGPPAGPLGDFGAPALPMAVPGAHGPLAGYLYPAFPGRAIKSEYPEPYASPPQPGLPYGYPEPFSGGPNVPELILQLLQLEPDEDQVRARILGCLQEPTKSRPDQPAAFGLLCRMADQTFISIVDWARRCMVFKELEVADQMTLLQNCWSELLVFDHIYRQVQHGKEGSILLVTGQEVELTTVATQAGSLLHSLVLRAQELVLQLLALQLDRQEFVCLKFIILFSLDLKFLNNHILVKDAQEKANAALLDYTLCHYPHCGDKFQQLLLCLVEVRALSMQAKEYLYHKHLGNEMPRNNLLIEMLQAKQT
row,pIC50,SMILES
1,5.56,CCC(NC(=O)Nc1nnc(C(F)(F)F)s1)(C(F)(F)F)C(F)(F)F
2,5.22,O=S1(=O)C=C(Sc2nnc(-c3ccccc3)o2)c2ccccc21
3,5.20,CCc1ccc(-c2nnn(CCC(=O)OC)n2)cc1
4,5.32,O=C1c2ccccc2C(=O)C1c1ccc2ccccc2n1
5,5.20,CC(C)OCCCNc1ncnc2c1[nH]c1ccc(F)cc12
6,5.20,CCCCOC(=O)c1[nH]c2c(c1C)C(=O)CC(c1cc(OC)c(OC)c(OC)c1)C2 (centres undefined)
7,5.68,[H][C@@]12C[N@@](CCc3c([nH]c4ccccc34)[C@@](C(=O)OC)(c3cc4c(cc3OC)N(C=O)[C@]3([H])[C@]45CC[N@@]4CC=C[C@@](CC)([C@@H](OC(C)=O)[C@]3(O)C(=O)OC)[C@]45[H])C1)C[C@](O)(CC)C2
8,< 5.44,Clc1ccc(-c2nnc(NC3=NCCCCC3)o2)cc1
9,< 4.96,Cc1ccc(N=C2Nc3ccccc3CS2)cc1
10,5.25,"CC(NC(=O)Nc1nnc(C(F)(F)F)s1)(C(F)(F)F)C(F)(F)F [1-(1,1,1,3,3,3-hexafluoro-2-methylpropan-2-yl)-3-[5-(trifluoromethyl)-1,3,4-thiadiazol-2-yl]urea]"
11,5.40,"O=C(CSc1nnc(COc2cccc3cccnc23)o1)N1CCc2ccccc21 [1-(2,3-Dihydro-indol-1-yl)-2-[5-(quinolin-8-yloxymethyl)-[1,3,4]oxadiazol-2-ylsulfanyl]-ethanone]"
12,5.12,CCCS(=O)(=O)c1nnnn1-c1cccc(OC)c1 [1-(3-methoxyphenyl)-5-(propylsulfonyl)-1H-tetrazole]
13,5.82,"Cc1ccc(-c2nsc3c(N4CCC(C(N)=O)CC4)ncnc23)cc1 [1-(3-p-Tolyl-isothiazolo[4,5-d]pyrimidin-7-yl)-piperidine-4-carboxylic acid amide]"
14,5.06,"CC(C)NCC(O)Cn1c2c(c3ccccc31)CCc1c-2cnn1-c1ccccc1 (centres undefined) [1-(3-phenyl-4,5-dihydropyrazolo[4,3-a]carbazol-10-yl)-3-(propan-2-ylamino)-2-propanol]"
15,< 4.96,"CCOc1ccc(S(=O)(=O)n2cnc3cc(C)c(C)cc32)cc1 [1-(4-Ethoxy-benzenesulfonyl)-5,6-dimethyl-1H-benzoimidazole]"
16,5.20,Cc1cccc(NC(=O)Nc2ccc(C#N)cc2)n1 [1-(4-cyanophenyl)-3-(6-methyl-2-pyridinyl)urea]
17,< 4.96,"COc1ccc(O)c(C(=O)CC(=O)c2ccc(F)cc2)c1 [1-(4-fluorophenyl)-3-(2-hydroxy-5-methoxy-phenyl)propane-1,3-dione]"
18,5.70,"COc1ccc(-n2ncc3c(N4CCCCC4)ncnc32)cc1 [1-(4-methoxyphenyl)-4-(1-piperidinyl)pyrazolo[3,4-d]pyrimidine]"
19,5.35,"COc1cc(CSc2nnnn2-c2ccc(C)cc2)cc(OC)c1OC [1-(4-methylphenyl)-5-[(3,4,5-trimethoxybenzyl)thio]-1H-tetrazole]"
20,5.46,"COCCn1c(C)cc(C(=O)CSc2nnc(C)s2)c1C [1-[1-(2-methoxyethyl)-2,5-dimethyl-1H-pyrrol-3-yl]-2-[(5-methyl-1,3,4-thiadiazol-2-yl)thio]ethanone]"
21,5.24,"CCOC(=O)C1CCN(c2ncnc3c2cnn3-c2ccc(Cl)cc2)CC1 [1-[1-(4-chlorophenyl)-4-pyrazolo[3,4-d]pyrimidinyl]-4-piperidinecarboxylic acid ethyl ester]"
22,5.01,"Cc1csc(SCC(=O)c2cc(C)n(Cc3cccs3)c2C)n1 [1-[2,5-dimethyl-1-(2-thenyl)pyrrol-3-yl]-2-[(4-methylthiazol-2-yl)thio]ethanone]"
23,5.22,"Cc1cc(-n2c(C)cc(C(=O)CSc3ncnc4ccccc34)c2C)no1 [1-[2,5-dimethyl-1-(5-methyl-1,2-oxazol-3-yl)pyrrol-3-yl]-2-quinazolin-4-ylsulfanyl-ethanone]"
24,5.15,"Cc1ccc(-c2csc3ncnc(Sc4nnc(CN5CCCCCC5=O)o4)c23)cc1 [1-[[5-[5-(4-methylphenyl)thieno[2,3-d]pyrimidin-4-yl]sulfanyl-1,3,4-oxadiazol-2-yl]methyl]azepan-2-one]"

row,pIC50,SMILES
1,5.38,"Nc1nnnn1N=C/C(Br)=C/c1ccccc1 [1-[[(Z)-2-bromanyl-3-phenyl-prop-2-enylidene]amino]-1,2,3,4-tetrazol-5-amine]"
2,5.28,C=CS(=O)(=O)c1ccc(Oc2ccc(S(=O)(=O)C=C)cc2)cc1 [1-ethenylsulfonyl-4-(4-ethenylsulfonylphenoxy)benzene]
3,5.35,"c1ccc(-n2ncc3c(N4CCCCC4)ncnc32)cc1 [1-phenyl-4-(1-piperidinyl)pyrazolo[3,4-d]pyrimidine]"
4,5.38,"Cc1ccc(-c2cn3nc(C)c(C)nc3n2)cc1 [2,3-dimethyl-6-(4-methylphenyl)imidazo[1,2-b][1,2,4]triazine]"
5,< 5.91,"COc1ccc(C(=O)Nc2ccc(C)cn2)c(OC)c1 [2,4-dimethoxy-N-(5-methylpyridin-2-yl)benzamide]"
6,4.74,"O=C(c1ccccc1)C(CCC(CN1CCOCC1)C(=O)c1ccccc1)CN1CCOCC1 (centres undefined) [2,5-bis(4-morpholinylmethyl)-1,6-diphenylhexane-1,6-dione;hydrochloride]"
7,6.05,"Cc1oc2cc3c(C(=O)OCCN(C)C)c(C)oc3cc2c1C(=O)OCCN(C)C [2,6-Dimethyl-benzo[1,2-b;4,5-b']difuran-3,7-dicarboxylic acid bis-(2-dimethylamino-ethyl) ester]"
8,5.55,"c1ccc(-c2cccc(-c3ccccn3)n2)nc1 [2,6-bis(2-pyridinyl)pyridine]"
9,5.67,"O=NC1c2cc(S(=O)(=O)N3CCCCC3)ccc2-c2ccc(S(=O)(=O)N3CCCCC3)cc21 [2,7-Bis-(piperidine-1-sulfonyl)-fluoren-9-one oxime]"
10,6.14,"O=c1c2ccccc2cnn1-c1nc2ccccc2s1 [2-(1,3-benzothiazol-2-yl)-1-phthalazinone]"
11,5.27,"c1ccc2nc(-c3nc4ccccc4o3)ccc2c1 [2-(1,3-benzoxazol-2-yl)quinoline]"
12,5.57,"COc1ccc(OC)c(NC(=O)CSc2nnnn2-c2ccc3c(c2)OCO3)c1 [2-(1-Benzo[1,3]dioxol-5-yl-1H-tetrazol-5-ylsulfanyl)-N-(2,5-dimethoxy-phenyl)-acetamide]"
13,< 8.30,"CCn1c(C)nc2cc(-c3nc4n(n3)Cc3ccccc3-4)ccc21 [2-(1-ethyl-2-methyl-5-benzimidazolyl)-5H-[1,2,4]triazolo[5,1-a]isoindole]"
14,5.87,"CCN1C=CC(=C2C(=O)c3ccccc3C2=O)C=C1 [2-(1-ethyl-4-pyridinylidene)indene-1,3-dione]"
15,< 5.44,"c1c2c(cc3sc(N4CCCCC4)nc13)OCCO2 [2-(1-piperidinyl)-6,7-dihydro-[1,4]dioxino[2,3-f][1,3]benzothiazole]"
16,6.37,"CCCN1C=CC(=C2C(=O)c3ccccc3C2=O)C=C1 [2-(1-propyl-4-pyridinylidene)indene-1,3-dione]"
17,5.25,"Cc1cnc(NC(=O)COc2ccccc2Cl)s1 [2-(2-chloranylphenoxy)-N-(5-methyl-1,3-thiazol-2-yl)ethanamide]"
18,< 5.44,Cn1c(-c2ccco2)nc2cc3ccccc3cc21 [2-(2-furanyl)-3-methylbenzo[f]benzimidazole]
19,5.36,"c1ccc2c(c1)CCN(c1nc3cc4c(cc3s1)OCCO4)C2 [2-(3,4-dihydro-1H-isoquinolin-2-yl)-6,7-dihydro-[1,4]dioxino[2,3-f][1,3]benzothiazole]"
20,5.23,"COc1ccc(CC(=O)Nc2cccc(-c3nnc(-c4cccc(C)c4)o3)c2)cc1OC [2-(3,4-dimethoxyphenyl)-N-[3-[5-(3-methylphenyl)-1,3,4-oxadiazol-2-yl]phenyl]acetamide]"
21,< 5.44,Nc1cccc(-c2nc3ccc(N)cc3s2)c1 [2-(3-Amino-phenyl)-benzothiazol-6-ylamine]
22,5.23,"O=C(CSC1=NCCS1)Nc1ccnc2ccccc12 [2-(4,5-dihydro-1,3-thiazol-2-ylsulfanyl)-N-quinolin-4-yl-ethanamide]"
23,5.45,"Cc1nnc(Sc2nc(Sc3nnc(C)s3)nc(N3CCN(C)CC3)n2)s1 [2-(4-Methyl-piperazin-1-yl)-4,6-bis-(5-methyl-[1,3,4]thiadiazol-2-ylsulfanyl)-[1,3,5]triazine]"

row,SMILES,pIC50
1,Cn1ncnc2c(=O)n(C)c(=O)nc1-2,6.20
2,"CCn1nc(-c2ccccc2)nc2c(=O)n(C)c(=O)nc1-2 [1-Ethyl-6-methyl-3-phenyl-1H-pyrimido[5,4-e][1,2,4]triazine-5,7-dione]",5.43
3,"CCn1nc(-c2cccs2)nc2c(=O)n(C)c(=O)nc1-2 [1-ethyl-6-methyl-3-thiophen-2-yl-pyrimido[5,4-e][1,2,4]triazine-5,7-dione]",5.66

# Same assay, conditions: inactive by the depositor's call
row,pIC50,SMILES
1,4.78,COc1ccc2[nH]c(=O)c3c(c2c1)OC(C)(C)C=C3
2,4.99,Cc1ccc2[nH]c3c(N4CCN(Cc5ccc6c(c5)OCO6)CC4)ncnc3c2c1
3,4.67,"CCCNc1nc2c(c(=O)n(C)c(=O)n2C)n1Cc1cccc(C)c1 [1,3-Dimethyl-7-(3-methyl-benzyl)-8-propylamino-3,7-dihydro-purine-2,6-dione]"
4,4.77,"Cc1cc(C)n2nc(SCC(=O)c3cc(C)n(-c4cc(C)on4)c3C)nc2n1 [1-[2,5-dimethyl-1-(5-methyl-1,2-oxazol-3-yl)pyrrol-3-yl]-2-[(5,7-dimethyl-[1,2,4]triazolo[1,5-a]pyrimidin-2-yl)sulfanyl]ethanone]"
5,4.94,CC(=O)c1ccc(N2CCN(c3ccc(C(F)(F)F)cn3)CC2)cc1 [1-[4-[4-[5-(trifluoromethyl)-2-pyridinyl]-1-piperazinyl]phenyl]ethanone]
6,4.75,CC(=O)N1CCc2cc(S(=O)(=O)NCCC3=CCCCC3)ccc21 [1-acetyl-N-(2-cyclohex-1-en-1-ylethyl)indoline-5-sulfonamide]
7,4.72,"COc1cc2c(cc1OC)C(C)N(C(=O)c1cc3ccccc3o1)CC2 (centres undefined) [1-benzofuran-2-yl-(6,7-dimethoxy-1-methyl-3,4-dihydro-1H-isoquinolin-2-yl)methanone]"
8,4.97,"O=C1c2ccccc2S(=O)(=O)N1Cc1nc2ccccc2s1 [2-(1,3-benzothiazol-2-ylmethyl)-1,1-bis(oxidanylidene)-1,2-benzothiazol-3-one]"
9,4.91,"CC1(C)CC(=O)C2=C(C1)Oc1nc3ccccc3cc1C2C(C#N)C#N (centres undefined) [2-(1-keto-3,3-dimethyl-4,12-dihydro-2H-chromeno[2,3-b]quinolin-12-yl)malononitrile]"
